The values that follow come from article PMC8012331, “Drug-induced hepatic steatosis in absence of severe mitochondrial dysfunction in HepaRG cells: proof of multiple mechanism-based toxicity” (Cell Biology and Toxicology, 2020).

For data set [1], the system named is HepaRG cells. The data set can be described thus: Neutral lipids with Nile red in HepaRG cells. As to conditions: 4 days. The method, then: (§1) Briefly, HepaRG cells were seeded in 96-well plates at a density of 2.6 × 10^4 cells/cm^2 and were first incubated in William’s E medium supplemented with 10% FBS (50% FBS from Eurobio and 50% FBS from GE Healthcare), 100 U/mL penicillin, 100 μg/mL streptomycin, 2 mM glutamine, 5 μg/mL insulin, and 50 μM hydrocortisone hemisuccinate. […] During this 1-month period, the culture medium was renewed three times a week. […] HepaRG cells were next cultured in the same FBS/DMSO conditions and incubated for 4 days with each drug at different concentrations. Culture medium was renewed every day and all investigations were performed after 96 h (i.e., 24 h after the fourth treatment). These investigations were mostly performed in 96-well plates except for western blot analysis, for which 6-well plates were used. Experiments were carried out on passages 9 to 16. All drugs (except DPEN), etomoxir, lomitapide, tunicamycin, thapsigargin, and TUDCA were dissolved in DMSO. DPEN was dissolved in water.
(§2) Cells were then incubated with PBS containing 0.1 μg/mL Nile red for 30 min and washed once. […] For each well, four pictures were taken at a magnification of × 20 and analyzed with Columbus software (PerkinElmer) for quantification. These pictures were always taken in four different areas around the center of each well, and these areas were the same from one well to another, as programmed by the Columbus software. This software was also designed to count only living cells after exclusion of dying cells harboring nuclei with abnormal shape or altered Hoechst intensity. […] Neutral lipids were then normalized per number of nuclei and expressed relative to control cells. Examples of images used for neutral lipid quantification are shown in Supplementary Fig. 2.

Data set [2] concerns primary human hepatocytes (PHH). The experiment in a line: Neutral lipids with Nile red in primary human hepatocytes. The class given is cell-based. As to conditions: 4 days. As to the method: Primary human hepatocytes (PHH) were purchased from Biopredic International (Saint-Grégoire, France). Cells were seeded by the supplier in coated 96-well plates at a density of 5 × 10^4 cells/well. Upon receipt, culture medium was removed and replaced by William’s E medium supplemented as previously described for HepaRG cell differentiation, except for DMSO set at 1%. After 2–3 days, cells were treated as for HepaRG cells. For HepaRG cells and PHH, cells were always maintained in incubators at 37 °C with 5% CO2 and saturating humidity.
as §2

Data set [3] concerns mitochondrial fatty acid oxidation (mtFAO). The experiment in a line: mtFAO with [U-14C]palmitic acid in HepaRG cells. Format: cell-based, human. The conditions noted are these: 4 days, vs control. As to the method:
(§3) Experiments were carried out on passages 9 to 16. […] DPEN was dissolved in water.
Results were normalized to total protein content determined using the Pierce BCA assay kit from Thermo Fischer Scientific (Waltham, MA). Results were expressed in comparison to control cells.

In data set [4] the test system is de novo lipogenesis (DNL). The data set can be described thus: DNL from [2-14C]acetic acid in HepaRG cells. The class given is cell-based, human. The conditions noted are these: 4 days, vs control. The method, then: as §3
DNL was assessed by measuring newly synthesized radiolabeled lipids from [2-^14C]acetic acid, using a protocol adapted from Byrne et al. ([2014]). Briefly, culture medium was removed and cells were washed with warm PBS. Next, cells were incubated for 3 h with phenol red-free William’s E medium containing 1% fatty acid-free BSA, [2-^14C]acetic acid (1850 Bq per well, corresponding to 19.4 pM) and 50 μM cold acetic acid. Medium was then gently removed and cells were washed with warm PBS before adding a mix of hexane/isopropanol (3:2; v/v). Cell culture plates were sealed and incubated for 1 h at room temperature for lipid extraction. After transfer of the plate content in 200-μL microtubes, hexane and PBS were added to have a hexane/isopropanol/PBS ratio of 6:2:3 (v/v/v). Microtubes were then centrifuged at 1000×g for 5 min and radiolabeled lipids were counted in the upper phase with a Tri-Carb 4910TR liquid scintillation counter (PerkinElmer). Results were normalized to total protein content and expressed in comparison to control cells.

The test system of data set [5] is apoB secretion. The data set can be described thus: apoB level in culture medium (ELISA), HepaRG cells. The class given is cell-based, human. The conditions noted are these: 4 days, culture medium, vs control. The method, then:
as §3
Twenty-four hours after the last treatment, cell supernatants were removed and stored at − 80 °C until use for apolipoprotein measurement. ApoB level was measured using the Human Apolipoprotein B ELISA^pro kit from Mabtech (Nacka Strand, Sweden), according to the manufacturer’s instructions. Briefly, 50 μL of samples were diluted 2× in Apo ELISA buffer before a 2-h incubation in the precoated strip plates provided in the kit. The plates were washed and incubated 1 h with the biotinylated monoclonal anti-human apoB (LDL-11-biotin) antibody. The plates were then washed and incubated 1 h with a streptavidin–horseradish peroxidase conjugated antibody. After another washing, 3,3′,5,5′-tetramethylbenzidine (TMB) was used as substrate for 15 min before adding a stop solution. Absorbance at 450 nm was then measured using a POLARstar Omega microplate reader (BMG Labtech, Ortenberg). ApoB level was calculated utilizing a four-parameter standard curve, and normalized to the total cellular protein content and expressed in comparison to control cells.

Data set [6] relates to apoC3 secretion. The data set can be described thus: apoC3 level in culture medium (HTRF), HepaRG cells. The class given is cell-based, human. The conditions noted are these: 4 days, culture medium, vs control. The method, then: as §1
Apolipoprotein C3 (apoC3) level was measured using the Human Apolipoprotein C3 kit from Cisbio Bioassays (Codolet, France), according to the manufacturer’s instructions. Briefly, 10 μL of supernatants was incubated with two different specific anti-human apoC3 antibodies, one donor and one acceptor. The detection principle of apoC3 is based on HTRF® (Homogeneous Time Resolved Fluorescence), a time-resolved FRET (Förster Resonance Energy Transfer) technology. After 2 h of incubation, light emission was measured with the Infinite F Nano+ microplate reader (Tecan, Männedorf, Switzerland). ApoC3 level was calculated utilizing standard curve, based on the ratio of A665 nm/A615 nm, and normalized to the total cellular protein content. Results were expressed in comparison to control cells.

Data set [7] deals with HepaRG cells. The experiment in a line: Cellular ATP level (CellTiter-Glo) in HepaRG cells. As to conditions: 4 days, vs controls. The class given is cell-based, human. The method, then: Cellular ATP level was measured using the CellTiter-Glo® Luminescent Cell Viability assay purchased from Promega (Charbonnières, France), according to the manufacturer’s instructions. Briefly, control and treated HepaRG cells were first washed with warm PBS and kept for 30 min at room temperature in phenol red-free William’s E medium. Cells were next incubated with the CellTiter-Glo® reagent for 10 min at room temperature. Cells were then transferred in opaque-walled multiwell plates and the luminescent signal was quantified using a POLARstar Omega microplate reader (BMG Labtech, Ortenberg, Germany). Results were expressed in comparison to control cells.

Data set [8] in a line: Maximum plasma concentration (Cmax) in patients. Format: in vivo, human. The conditions noted are these: worked out from cited Cmax in patients.
Data set [9] has as its system ERN1 (IRE1α). The data set can be described thus: RT-qPCR ERN1 mRNA in HepaRG cells. The class given is cell-based, human. As to conditions: 4 days, vs control. As to the method: Total RNA was extracted with the Nucleospin RNA isolation system purchased from Macherey-Nagel (Düren, Germany), which included a DNase treatment step. Quantification of isolated RNAs was assessed using a Nanodrop 1000 (Thermo Fisher Scientific, Waltham, MA). RNAs were reverse-transcribed into cDNAs using the High-Capacity cDNA Reverse Transcription Kit purchased from Applied Biosystems (Woolston, UK). Gene expression was assessed by real-time quantitative PCR analysis (RT-qPCR) using SYBR Green PCR Master Mix (Applied Biosystems) and a 384-well QuantStudio™ 7 Flex Real-Time PCR System (Thermo Fisher Scientific). Sequences of the primers used to measure gene expression are presented in Supplementary Table 3. Expression of GAPDH was chosen as reference and the 2^−ΔΔCt calculation method was used to express the relative expression of each selected gene.

The conditions of data set [10]: patients, ref given per drug, cited from earlier work; for Cmax: read-out: Maximum plasma concentration (Cmax) in patients.
For data set [11] the following is noted: treated patients, ref Schulz M et al., Crit Care 2012 ;16(4):R136, cited from earlier work.
Setting [12] is: selected concentrations (ATP loss < 30%, not above 100 × Cmax), vs control.

“And” between values parts separate entries of the source, which are not always exact repeats. Equal values may be shown once. Read-outs that look alike come from different tables or passages of the source. Some results are limits rather than exact numbers.

`O=c1[nH]cc(F)c(=O)[nH]1` [5FU, 5-fluorouracil]: the “Accumulation of neutral lipids (steatosis)” value (from here on “Accumulation”) in data set [1] (setting [12]) is listed as “significant accumulation of neutral lipids”. Also, in [2], the “Steatosis in PHH batches (six batches tested)” value is given as “induced steatosis in only one PHH batch”. Besides, in [3], the “Effect on mtFAO” value is recorded as “significantly enhance mtFAO”. Besides, the “Effect on DNL” value in data set [4] was “curb this metabolic pathway”. The “Effect on apoB secretion” value in data set [5] is recorded as “reduced the secretion”. Besides, the “Effect on apoC3 secretion” value in data set [6] is recorded as “reduced the secretion”. Also, the “Loss of cellular ATP relative to the maximum concentration selected for the study” value in data set [7] is 100 µM (loss of cellular ATP above 30% of the controls for higher concentrations, as shown in Supp. fig 1). Further, the “Concentration corresponding to 100xCmax” value in [8] was 42000 µM. For the same compound, in data set [9], the “ERN1 (IRE1α) mRNA level” value was “enhanced IRE1α mRNA level”. In data set [10], the “Maximum plasma concentration (Cmax) in patients” value (“Maximum plasma concentration” below) is not above 55000 ng/mL and the Cmax was not above 420 µM. Besides, the “Therapeutic blood (or plasma) concentration in patients” value (from here on “Therapeutic blood”) in data set [11] (listed as 5-Fluorouracil (5FU)) is 0.05 - 0.3 mg/L and 0.38 - 2.3 µM.
In the case of `Oc1ncnc2[nH]ncc12` [ALLO, allopurinol], the “Accumulation” value in data set [1] (setting [12]) is given as “significant accumulation of neutral lipids”. The “Steatosis in PHH batches (six batches tested)” value in data set [2] was “accumulation of neutral lipids in five PHH batches”. Also, the “Effect on mtFAO” value in data set [3] is “significantly enhance mtFAO”. In addition, the “Effect on DNL” value in data set [4] was “curb this metabolic pathway”. The “Effect on apoB secretion” value in [5] was “reduced the secretion”. In data set [6], the “Effect on apoC3 secretion” value is listed as “reduced the secretion”. The “Loss of cellular ATP relative to the maximum concentration selected for the study” value in data set [7] was 750 µM (loss of cellular ATP above 30% of the controls for higher concentrations, as shown in Supp. fig 1). The “Concentration corresponding to 100xCmax” value in data set [8] is 1500 µM. In addition, in [9], the “ERN1 (IRE1α) mRNA level” value was “enhanced IRE1α mRNA level”. In [10], the “Maximum plasma concentration” value is not above 2050 ng/mL and the Cmax was not above 15 µM. For the same compound, the “Therapeutic blood” value in data set [11] (listed as Allopurinol (ALLO)) was 2 - 19 mg/L and 15 - 140 µM.
As for `CC(C)(S)[C@@H](N)C(=O)O` [DPEN, D-penicillamine], in data set [1] (concentrations above 100 × Cmax (100 μM NIF, 5000 μM DPEN)), the “Accumulation” value is “significant accumulation of neutral lipids”. For the same compound, the “Accumulation” value in data set [1] (setting [12]) is “did not induce steatosis”. Moreover, in [7], the “Loss of cellular ATP relative to the maximum concentration selected for the study” value is 2500 µM (slight loss of cellular ATP for this concentration, as shown in Supp. fig 1). The “Concentration corresponding to 100xCmax” value in data set [8] amounted to 2500 µM. Besides, in data set [10], the “Maximum plasma concentration” value is not above 3760 ng/mL and the Cmax was not above 25 µM. For the same compound, the “Therapeutic blood” value in [11] (listed as D-penicillamine (DPEN)) was 1.7 - 5.6 mg/L and 11.4 - 37.6 µM.
In the case of `CC(C)(C)NC(=O)[C@@H]1CN(Cc2cccnc2)CCN1C[C@@H](O)C[C@@H](Cc1ccccc1)C(=O)N[C@H]1c2ccccc2C[C@H]1O` [INDI, indinavir], in data set [1] (setting [12]), the “Accumulation” value is recorded as “significant accumulation of neutral lipids”. Moreover, the “Effect on DNL” value in data set [4] is reported as “curb this metabolic pathway”. Besides, the “Effect on apoB secretion” value in data set [5] is on record as “reduced the secretion”. Besides, in data set [6], the “Effect on apoC3 secretion” value is on record as “reduced the secretion”. In addition, the “Concentration corresponding to 100xCmax” value in data set [8] was determined as 1300 µM. Also, in data set [10], the “Maximum plasma concentration” value was not above 8000 ng/mL and the Cmax was not above 13 µM.
With `Cn1cc[nH]c1=S` [METHI, methimazole], the “Accumulation” value in [1] (setting [12]) is “did not induce steatosis”. Further, in data set [10], the “Maximum plasma concentration” value is not above 1500 ng/mL and the Cmax is not above 13 µM. Further, the “Therapeutic blood” value in [11] (listed as Methimazole (METHI)) was 0.5 - 2.5 mg/L and 4.4 - 22 µM.
With `COC(=O)C1=C(C)NC(C)=C(C(=O)OC)C1c1ccccc1[N+](=O)[O-]` [NIF, nifedipine], in data set [11] (listed as Nifedipine (NIF)), the “Therapeutic blood” value is 0.025 - 0.15 mg/L and 0.07 - 0.43 µM.
In the case of `CCOC(=O)[C@@]1(CCCCCCOc2ccc(Cl)cc2)CO1` [etomoxir, (+)-etomoxir], the “Effect on mtFAO” value in data set [3] is “blocked”.
For `O=C(NC1CCN(CCCCC2(C(=O)NCC(F)(F)F)c3ccccc3-c3ccccc32)CC1)c1ccccc1-c1ccc(C(F)(F)F)cc1` [lomitapide], the “Effect on apoB secretion” value in [5] was “inhibited”.
